Positions of bridges follow the written chain, without caps; N, C: chain ends. Non-standard residues stand in square brackets, D forms with d. Residues, ends and D or L forms follow the SMILES beside them. Leu(3R-O(AcLeu(3R-OH))) = CC(=O)N[C@H](C(=O)O[C@H](C(C)C)[C@H](N)C(=O)O)[C@H](O)C(C)C; NMeT = CN[C@H](C(=O)O)[C@@H](C)O; dPhLac = O=C(O)[C@H](O)Cc1ccccc1; NMeA = CN[C@@H](C)C(=O)O; NMeDha = C=C(NC)C(=O)O
Legend:
C57BL/6 mice = assay: Tail immersion test (54° C), spinal analgesia; format: in vivo, mouse; details: for anti-nociceptive response in tail flick (tail immersion) test: subcutaneous
Excerpt: A. Experimental animals. C57BL/6 mice (6-8 weeks old) of both sexes were used. Mice were housed in groups on a 12-h light-dark cycle (6:00 am light cycle; 6:00 pm dark cycle) with food (Teklad Global 16% protein rodent diets; Envigo Inc., WI, USA) and water available ad libitum. Animal groups were compiled to ensure minimization of factors (e.g., weight, sex, and health). Mice were within 20-28 g in weight at start of all studies. All tested groups contained a control group and consisted of male and female mice. Males and females were tested on the same day but at different times so that they were not in the room at the same time. All the experiments were tested during the light cycle between 8:00 am and 3:00 pm to avoid any long-term disruption of sleep cycles. Mice were transferred to the behavioural testing room at least 45 min before the first test to acclimatize. Following behavioural evaluation, animals were killed by CO2 inhalation, followed by cervical dislocation and postmortem decapitation.
B. Drug treatments. […] The dose of YM-254890 for subcutaneous injection was taken from previous published studies. The dose of morphine selected for subcutaneous administration (2.5, 5 and 10 mg kg-1) is commonly used in mouse analgesia. For the combined administration of morphine and YM-254890 on thermal anti-nociception, YM-254890 was administered 10 min before the morphine. The latency of response was measured before injection of drugs (baseline latency response) and at different time intervals (post-treatment latency response) after drugs injection.
C. Intrathecal injections. Intrathecal (i.t.) administration was performed following the method described previously (Hylden J L et al. “Intrathecal morphine in mice: a new technique.” Eur J Pharmacol (1980) 67:313-316; Li D et al. “Direct Intrathecal Injection of Recombinant Adeno-associated Viruses in Adult Mice.” J Vis Exp (2019)) with slight modifications. All intrathecal injections were performed using a 25 μL Hamilton syringe with a 30-gauge needle. The injection volume was 5 μL for each mouse. […] Each solution was injected without injection cannulae. Intrathecal injections were made into the L5-L6 intervertebral space of unanesthetized mice. The flick of the tail was considered indicative of a successful i.t. administration.
(2) Tail Immersion test. Anti-nociception induced by YM-254890 or evaluation of morphine's analgesic effects was determined by tail immersion test. The test was performed as previously described (Wang et al. 2019). Individual mice were transferred to experimentation room and restrained using a well-ventilated 50-ml tube with air holes. In order to minimize handling and to facilitate both the drug delivery and testing, each mouse was comfortably positioned in the plastic restrainer tubes with both fore paws and hind paws extending through holes at the bottom of the restrainer. All animals were habituated to restraint 1 h for 3 days prior to behaviour test. […] Once the animal was immobilized (within 25-30 s), two thirds of the entire tail was dipped in water bath heated to 54° C.

DRG nociceptors = assay: Whole cell patch-clamp recordings of acutely dissociated DRG nociceptors; format: cell-based, mouse
Protocol: F. Acutely dissociated dorsal root ganglion (DRG) Preparation. Male or female mice between 1 and 2 months of age were used for acute DRG isolations. […] Dissociated DRG cultures were prepared as previously described (Perner C et al. “Protocol for dissection and culture of murine dorsal root ganglia neurons to study neuropeptide release.” STAR Protoc (2021) 2:100333). Briefly, DRGs were dissected from 1- to 2-month-old mice in Hank's buffered salt solution (HBSS) and digested with Collagenase A and Dispase II for 25 min at 37° C., centrifuged at 200×g for 5 min, and washed with Dulbecco's modified Eagle's medium (DMEM) supplemented with 10% fetal bovine serum (FBS), glutamate, sodium pyruvate, 1% penicillin and 1% streptomycin. DRGs were then triturated in Neurobasal A medium supplemented with 10% FBS, 1% penicillin, 1% streptomycin, 1% GlutaMAX, 2% B27, […] nerve growth factor (NGF) and […] glial cell line-derived neurotrophic factor (GDNF). After plating on laminin-coated coverslips, cells were incubated at 37° C. overnight. Experiments were performed the day after dissection.
G. Whole cell patch-clamp recordings. Nociceptors were identified by physiological classification protocols (Petruska J C et al. “Subclassified acutely dissociated cells of rat DRG: histochemistry and patterns of capsaicin-, proton-, and ATP-activated currents.” J Neurophysiol (2000) 84:2365-2379) summarized in FIG. 10 and further by responsivity to morphine. Each experimental group consisted of 12-18 DRG recordings from three animals, 1-2 of which were female. Hyperpolarization-activated current (Ih) and kinetics of resulting transient currents were determined by stepping membrane potential from −60 to −110 mV for 500 ms in 10 mV increments (FIG. 10A). Outward currents were identified by first preconditioning membrane potential at −100 mV for 500 ms and then stepping from −60 to 40 mV in 20 mV increments for 200 ms (FIG. 10D). Inward current dynamics were determined by preconditioning at −80 mV and then stepping from −60 to 40 mV in 10 mV increments (FIG. 10G). A 6-s, 0- to 2-nA continuous ramp stimulation protocol was used to determine rheobase. Membrane capacitance (Cm), series resistance (Rs) and input resistance (Ri) were tested with a hyperpolarizing 10 mV pulse of 10 ms duration initially and at a 30 s interval throughout the recording period. Cells were recorded only if initial series resistance was ≤20 MΩ and excluded if Rs varied >20% while recording. Offline analysis identified clustering of a population n=30 with uniform morphine responsivity that was selected for further analysis, with basal parameters #SEM: Cm=27.31±4.72 pF, Ri=492±19.29 MQ, Ih=7.10±2.45 pA·pF−1, IA tau=8.39±0.41 ms and action potential (AP) tau=1.22±0.08 ms. K+ internal was used for all recordings, containing: 6 mM NaCl, 4 mM NaOH, 130 mM K-gluconate, 11 mM ethylene glycol-bis(β-aminoethyl ether)tetraacetic acid (EGTA), 1 mM CaCl2, 1 mM MgCl2, 10 mM N-(2-hydroxyethyl)piperazine-N′-(2-ethanesulphonic acid) (HEPES), 2 mM Na2ATP, and 0.2 mM Na2GTP 0.2, adjusted to pH 7.3-7.4 with HCl. External artificial CSF contained: 125 mM NaCl, 3 mM KCl, 1.2 mM KH2PO4, 1.2 mM MgSO4, 25 mM NaHCO3, 2 mM CaCl2), and 10 mM dextrose 10, adjusted to pH 7.3-7.4 with HCl.

[1] = co-application 100 nM YM + 1 μM morphine

How did the “effect on morphine analgesia, tail immersion test” value (C57BL/6 mice; YM-254890 0.25 mg kg-1 s.c. 10 min before morphine 5 mg/kg s.c.) turn out when `C=C1C(=O)N[C@@H](C)C(=O)N(C)[C@@H](C)C(=O)N[C@@H]([C@H](OC(=O)[C@@H](NC(C)=O)[C@H](O)C(C)C)C(C)C)C(=O)N(C)[C@@H]([C@@H](C)OC)C(=O)O[C@H](C)[C@H](NC(C)=O)C(=O)O[C@H](Cc2ccccc2)C(=O)N1C` [YM-254890] (Ac-T[dPhLac][NMeDha]A[NMeA][Leu(3R-O(AcLeu(3R-OH)))][NMeT](Me); ester 1-C) was run?
The value was “eliminated this effect”.

And the “effect on morphine analgesia, tail immersion test” value (C57BL/6 mice; YM-254890 0.5 mg·kg−1 s.c. 10 min before morphine 5 mg/kg s.c.)?
The value was “significant enhancement of the anti-nociceptive effects of morphine”.

And the “time to return to baseline nociception, tail immersion test” value (C57BL/6 mice; YM-254890 alone, intrathecal, 3.0 and 4.5 nmol)?
Its value is “about 2 h”.

And the “magnitude of anti-nociceptive effect upon increasing the dose, tail immersion test” value (C57BL/6 mice; YM-254890 alone, intrathecal, 3.0 to 4.5 nmol (ceiling effect))?
Its value is “did not change”.

What about the “anti-nociception in tail immersion test, intrathecal” value (C57BL/6 mice; YM-254890 alone, intrathecal, doses above 1.5 nmol per injection) of the same compound?
Its value is “significant anti-nociceptive properties”.

What about the “anti-nociceptive response in tail flick (tail immersion) test” value (C57BL/6 mice; YM-254890 alone, highest dose 1 mg·kg−1) of the same compound?
Its value is “significant anti-nociceptive response”.

And the “anti-nociceptive response in tail flick (tail immersion) test” value (C57BL/6 mice; YM-254890 alone, lower doses (0.1, 0.3, 0.5 mg/kg))?
The value was “no significant difference in nociceptive response”.

What about the “effect on systemic morphine analgesia, tail immersion test” value (C57BL/6 mice; YM-254890 intrathecal 0.5 nmol (lowest subthreshold dose) 10 min before morphine 2.5 mg/kg s.c.) of the same compound?
Its value is “significantly enhance the anti-nociceptive effects of morphine”.

And the “dose dependence of enhancement of morphine analgesia, tail immersion test” value (C57BL/6 mice; YM-254890 intrathecal 0.5, 1.5, 3.0, 4.5 nmol with morphine 2.5 mg/kg s.c.)?
Its value is “increased dose dependently until maximizing at the cut-off value for the test”.

And the “maximal extent and duration of morphine analgesia, tail immersion test” value (C57BL/6 mice; YM-254890 intrathecal, at each of the doses, with morphine 2.5 mg/kg s.c.)?
Its value is “both the maximal extent and duration of the analgesic effects of morphine were increased”.

And the “inhibition of substance P induced excitation of DRG nociceptors” value (DRG nociceptors; 10 nM substance P followed by 10 nM SP and 100 nM YM)?
The value was “inhibit the effects of substance P”.

What about the “magnitude of decrease in excitability relative to morphine” value (DRG nociceptors; 100 nM YM versus 1 μM morphine) of the same compound?
Its value is “smaller as compared with morphine”.

What about the “rapidly inactivating A-type potassium currents (IA), voltage-step protocol 2” value (DRG nociceptors; YM-254890 or morphine alone) of the same compound?
The value was “significantly inhibited IA”.

And the “AP amplitude, voltage-step protocol” value (DRG nociceptors; bath application alone: 100 nM YM or 1 μM morphine)?
The value was “moderately reduced AP amplitude”.

What about the “excitability of DRG nociceptors (rheobase, 0-2 nA ramp stimulation)” value (DRG nociceptors; bath application alone: 1 μM morphine or 100 nM YM) of the same compound?
The value was “significant decrease in the excitability”.

What about the “action potential firing in 0-2 nA ramp protocol” value (DRG nociceptors; [1]) of the same compound?
The value was “prevented action potential firing throughout the 2-nA ramp protocol in all recordings”.

What about the “evoked AP responses, voltage-step protocol” value (DRG nociceptors; [1]) of the same compound?
Its value is “largely prevented evoked AP responses”.

What about the “evoked AP responses, voltage-step protocol” value (DRG nociceptors; co-application 100 nM YM + 1 μM morphine, listed as YM) of the same compound?
Its value is “greatly inhibited evoked depolarization”.

And the “rapidly inactivating A-type potassium currents (IA), voltage-step protocol 2” value (DRG nociceptors; coadministration of YM-254890 and morphine)?
The value was “nearly eliminated IA”.
